Like-named read-outs stand apart in the source and are kept apart here.
Columns and labels:
[1] = test system: K. pneumoniae NVT1001 and its GyrA/ParC and ΔramR mutants; assay: Etest MIC of quinolones, GyrA/ParC mutations and AcrAB-TolC overexpression (ΔramR) (Table 10); assay type: cell-based; conditions: Klebsiella pneumoniae
From the text: DNA fragments of the entire gyrA and parC sequences along with their flanking regions were amplified from K. pneumoniae strain NVT1001 using PCR with specific primer pairs and then cloned into the plasmid pUT-KB. The QuikChange site-directed mutagenesis kit (Stratagene) was used to generate mutations in the gyrA and parC genes in the plasmid using the methods described by the manufacturer. For homologous recombination, plasmids containing mutations in the gyrA or parC gene were transformed into E. coli S17-1 λpir^23 via electroporation and mobilized into K. pneumoniae strain NVT1001 via conjugation. Single-crossover strains were selected from BIND plates supplemented with kanamycin (50 mg/L), as the growth of non-K. pneumoniae contaminants is suppressed on BIND plates.^24 After the kanamycin-resistant transconjugants were selected, the insertion of plasmids was verified via PCR. After incubation in 20 mL BHI broth for 6 hours at 37° C. in the absence of kanamycin, the fully grown cultures were spread onto LB agar plates supplemented with 10% sucrose. After the double crossover occurred, the sucrose-resistant and kanamycin-susceptible colonies were selected, and the gene mutations were confirmed via PCR.
(§1) The MICs of antibiotics were determined using the Etest (Biodisk AB, Sweden) according to the manufacturer's instructions. The MICs from the Etest, which fall between standard two-fold dilutions, were rounded up to the next highest two-fold value. The MICs of ceftazidime and cefotaxime against K. pneumoniae NVT1001 harbouring the pACYC177 plasmid with blaOXA-48 were further determined using a broth microdilution test according to the recommendations of the CLSI,^25 and the results were interpreted according to the breakpoints established by the CLSI in 2017.^25 Meanwhile, due to the lack of CLSI breakpoints in 2016 and 2017, the results for cephalothin were interpreted according to the breakpoints established by the CLSI in 2015,^26 and the results for moxifloxacin were interpreted according to the breakpoints established by the EUCAST in 2017.^27

[2] = test system: K. pneumoniae NVT1001 gyrA/parC and gyrA/parC/ramR mutants and revertants; assay: Etest MIC of quinolones, gyrA/parC and gyrA/parC/ramR mutants and their revertants (Table 11); assay type: cell-based; conditions: Klebsiella pneumoniae
From the text: The allelic-exchange method was used to restore the wild-type gene in the K. pneumoniae NVT1001 mutants with constructed chromosome-mediated resistance mechanisms, as described by Tsai et al.^19 Briefly, a DNA fragment of the entire wild-type gene sequence along with flanking regions was amplified from K. pneumoniae NVT1001 using PCR with specific primers. The resulting PCR fragment was digested and then cloned into pUT-KB. For homologous recombination, this plasmid was transformed into E. coli S17-1 λpir^23 via electroporation and mobilized into the K. pneumoniae NVT1001 mutant via conjugation. […] After incubation in 20 mL BHI broth for 6 hours at 37° C. in the absence of kanamycin, the fully grown cultures were spread onto LB agar plates supplemented with 10% sucrose. After the double crossover occurred, the sucrose-resistant and kanamycin-susceptible colonies were selected, and the restoration of the wild-type gene was confirmed via DNA sequencing.
as §1

[3] = S83F/D87N/S80I::F83S/N87D/I80S revertant, read-out: MIC
[4] = S83F/D87N/S80I::I80S revertant, read-out: MIC
[5] = S83F/D87N/S80I::N87D revertant, read-out: MIC
[6] = S83F/D87N/S80I::N87D/I80S revertant, read-out: MIC
[7] = S83I/D87N/S80I::I80S revertant, read-out: MIC
[8] = S83I/D87N/S80I::I83S/N87D/I80S revertant, read-out: MIC
[9] = S83I/D87N/S80I::N87D revertant, read-out: MIC
[10] = S83I/D87N/S80I::N87D/I80S revertant, read-out: MIC
[11] = S83L/D87N/S80I::I80S revertant, read-out: MIC
[12] = S83L/D87N/S80I::L83S/N87D/I80S revertant, read-out: MIC
[13] = S83L/D87N/S80I::N87D revertant, read-out: MIC
[14] = S83L/D87N/S80I::N87D/I80S revertant, read-out: MIC
[15] = S83Y/D87N/S80I::I80S revertant, read-out: MIC
[16] = S83Y/D87N/S80I::N87D revertant, read-out: MIC
[17] = S83Y/D87N/S80I::N87D/I80S revertant, read-out: MIC
[18] = S83Y/D87N/S80I::Y83S/N87D/I80S revertant, read-out: MIC
[19] = ΔramR/S83I/D87N/S80I:: ramR/I83S revertant
[20] = ΔramR/S83I/D87N/S80I:: ramR/I83S/I80S revertant
[21] = ΔramR/S83I/D87N/S80I:: ramR/I83S/N87D revertant
[22] = ΔramR/S83I/D87N/S80I::I83S/N87D/I80S revertant
[23] = ΔramR/S83I/D87N/S80I::N87D revertant
[24] = ΔramR/S83I/D87N/S80I::N87D/I80S revertant
[25] = ΔramR/S83I/D87N/S80I::ramR/I83S/N87D/I80S

C[C@H]1COc2c(N3CCN(C)CC3)c(F)cc3c(=O)c(C(=O)O)cn1c23 [Levofloxacin, levofloxacin]
MIC ([1]; D87N mutant (GyrA D87N)): 0.5 µg/mL
MIC ([1]; D87N/S80I mutant): 0.5 µg/mL
MIC ([1]; NVT1001, read-out: MIC): 0.06 µg/mL
MIC ([1]; S80I mutant (ParC S80I)): 0.125 µg/mL
MIC ([1]; S83F mutant (GyrA S83F)): 0.5 µg/mL
MIC ([1]; S83F/D87N mutant): 0.5 µg/mL
MIC ([1]; S83F/D87N/S80I mutant): 8 µg/mL
MIC ([1]; S83F/S80I mutant): 0.5 µg/mL
MIC ([1]; S83I mutant (GyrA S83I)): 0.5 µg/mL
MIC ([1]; S83I/D87N mutant): 1 µg/mL
MIC ([1]; S83I/D87N/S80I mutant): 8 µg/mL
MIC ([1]; S83I/S80I mutant): 2 µg/mL
MIC ([1]; S83L mutant (GyrA S83L)): 0.5 µg/mL
MIC ([1]; S83L/D87N mutant): 0.5 µg/mL
MIC ([1]; S83L/D87N/S80I mutant): 8 µg/mL
MIC ([1]; S83L/S80I mutant): 1 µg/mL
MIC ([1]; S83Y mutant (GyrA S83Y)): 0.5 µg/mL
MIC ([1]; S83Y/D87N mutant): 0.5 µg/mL
MIC ([1]; S83Y/D87N/S80I mutant): 4 µg/mL
MIC ([1]; S83Y/S80I mutant): 1 µg/mL
MIC ([1]; ΔramR mutant): 1 µg/mL
MIC ([1]; ΔramR/S83I mutant): 16 µg/mL
MIC ([1]; ΔramR/S83I/D87N/S80I mutant): > 32 µg/mL
MIC ([1]; ΔramR/S83I/S801 mutant): > 32 µg/mL
MIC ([2]; S83F/D87N/S80I mutant): 8 µg/mL
MIC [2, 3]: 0.06 µg/mL
MIC [2, 4]: 0.5 µg/mL
MIC [2, 5]: 1 µg/mL
MIC [2, 6]: 0.5 µg/mL
MIC ([2]; S83I/D87N/S80I mutant): 8 µg/mL
MIC [2, 7]: 1 µg/mL
MIC [2, 8]: 0.06 µg/mL
MIC [2, 9]: 4 µg/mL
MIC [2, 10]: 1 µg/mL
MIC ([2]; S83L/D87N/S80I mutant): 8 µg/mL
MIC [2, 11]: 1 µg/mL
MIC [2, 12]: 0.06 µg/mL
MIC [2, 13]: 2 µg/mL
MIC [2, 14]: 1 µg/mL
MIC ([2]; S83Y/D87N/S80I mutant): 4 µg/mL
MIC [2, 15]: 0.5 µg/mL
MIC [2, 16]: 1 µg/mL
MIC [2, 17]: 0.5 µg/mL
MIC [2, 18]: 0.06 µg/mL
MIC ([2]; ΔramR/S83I/D87N/S80I mutant): > 32 µg/mL
MIC [2, 19]: 0.5 µg/mL
MIC [2, 20]: 0.5 µg/mL
MIC [2, 21]: 0.06 µg/mL
MIC [2, 22]: 1 µg/mL
MIC [2, 23]: > 32 µg/mL
MIC [2, 24]: 8 µg/mL
MIC [2, 25]: 0.06 µg/mL

COc1c(N2C[C@@H]3CCCN[C@@H]3C2)c(F)cc2c(=O)c(C(=O)O)cn(C3CC3)c12 [Moxifloxacin, moxifloxacin]
MIC ([1]; D87N mutant (GyrA D87N)): 0.5 µg/mL
MIC ([1]; D87N/S80I mutant): 1 µg/mL
MIC ([1]; NVT1001, read-out: MIC): 0.125 µg/mL
MIC ([1]; S80I mutant (ParC S80I)): 0.25 µg/mL
MIC ([1]; S83F mutant (GyrA S83F)): 0.5 µg/mL
MIC ([1]; S83F/D87N mutant): 0.5 µg/mL
MIC ([1]; S83F/D87N/S80I mutant): 32 µg/mL
MIC ([1]; S83F/S80I mutant): 1 µg/mL
MIC ([1]; S83I mutant (GyrA S83I)): 1 µg/mL
MIC ([1]; S83I/D87N mutant): 1 µg/mL
MIC ([1]; S83I/D87N/S80I mutant): > 32 µg/mL
MIC ([1]; S83I/S80I mutant): 8 µg/mL
MIC ([1]; S83L mutant (GyrA S83L)): 0.5 µg/mL
MIC ([1]; S83L/D87N mutant): 0.5 µg/mL
MIC ([1]; S83L/D87N/S80I mutant): 32 µg/mL
MIC ([1]; S83L/S80I mutant): 2 µg/mL
MIC ([1]; S83Y mutant (GyrA S83Y)): 0.5 µg/mL
MIC ([1]; S83Y/D87N mutant): 0.5 µg/mL
MIC ([1]; S83Y/D87N/S80I mutant): 32 µg/mL
MIC ([1]; S83Y/S80I mutant): 1 µg/mL
MIC ([1]; ΔramR mutant): 1 µg/mL
MIC ([1]; ΔramR/S83I mutant): 8 µg/mL
MIC ([1]; ΔramR/S83I/D87N/S80I mutant): > 32 µg/mL
MIC ([1]; ΔramR/S83I/S801 mutant): > 32 µg/mL
MIC ([2]; S83F/D87N/S80I mutant): 32 µg/mL
MIC [2, 3]: 0.125 µg/mL
MIC [2, 4]: 1 µg/mL
MIC [2, 5]: 0.5 µg/mL
MIC [2, 6]: 0.5 µg/mL
MIC ([2]; S83I/D87N/S80I mutant): > 32 µg/mL
MIC [2, 7]: 1 µg/mL
MIC [2, 8]: 0.125 µg/mL
MIC [2, 9]: 4 µg/mL
MIC [2, 10]: 1 µg/mL
MIC ([2]; S83L/D87N/S80I mutant): 32 µg/mL
MIC [2, 11]: 1 µg/mL
MIC [2, 12]: 0.125 µg/mL
MIC [2, 13]: 1 µg/mL
MIC [2, 14]: 0.5 µg/mL
MIC ([2]; S83Y/D87N/S80I mutant): 32 µg/mL
MIC [2, 15]: 0.5 µg/mL
MIC [2, 16]: 0.5 µg/mL
MIC [2, 17]: 0.5 µg/mL
MIC [2, 18]: 0.125 µg/mL
MIC ([2]; ΔramR/S83I/D87N/S80I mutant): > 32 µg/mL
MIC [2, 19]: 1 µg/mL
MIC [2, 20]: 0.5 µg/mL
MIC [2, 21]: 0.25 µg/mL
MIC [2, 22]: 1 µg/mL
MIC [2, 23]: > 32 µg/mL
MIC [2, 24]: 8 µg/mL
MIC [2, 25]: 0.125 µg/mL
